Source: patent US9212168B2 (priority 2011, dated 2015)
pEC50: −log10 of the molar value.

Experiments:
HCV genotype 1b replicon = HCV genotype 1b replicon assay (Renilla luciferase readout); type: cell-based, hepatitis C virus; settings: Hepatitis C virus, read-out: Genotype 1b
Summary of the method: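 Huh7-derived APC144 subgenomic replicon cells carrying Renilla luciferase–NS3-NS5B, seeded 10,000/well without G418, then treated with compound dose-responses for 48 h at 37 °C (0.5% DMSO final). Luciferase signal fitted by 4-parameter model to EC50, reported as pEC50.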

HCV genotype 1a replicon = HCV genotype 1a replicon assay (NS3 protease activity readout); type: cell-based, hepatitis C virus; settings: Hepatitis C virus, read-out: Genotype 1a, HCV genotype 1a replicon
Summary of the method: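 Genotype 1a subgenomic replicon cells (APC89, Huh7.5) were treated with compound dose-responses in G418-free medium, 0.5% DMSO final, for 48 or 72 hours at 37° C. Lysate NS3/4a protease activity measured with 15 μM FRET substrate, 20 min at 37° C (ex 340/em 509 nm); EC50 by 4-parameter fit.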

[1] = test system: HCV genotype 1a Y93H resistant mutant replicon; test: Replicon assay against resistant mutant 1a Y93H (transient transfection); type: cell-based; settings: Hepatitis C virus, read-out: Genotype 1a Y93H
Experimental: Assay 3: Replicon Assays Against Resistant Mutants […]
Potencies of test compounds against additional mutations of interest were determined using transient transfection assays. These mutants included genotype 1a Y93C, Y93H, M28T, Q30E, Q30K, L31M, and Y93N. The mutation was first introduced into the parental plasmid by site-directed mutagenesis. The replicon plasmid was then linearized and in vitro transcribed to RNA. The RNA was used to transiently transfect Huh-LUNET cells (obtained from ReBLikon GmbH, Schriesheim, Germany) by electroporation, and the potencies of test compounds against the mutants were determined as previously described.

[2] = test system: HCV genotype 3a NS5A chimeric replicon; test: Replicon assay against NS5A sequence of genotype 3a, intergenotypic chimera; type: cell-based; settings: Hepatitis C virus, read-out: Genotype 3a
Experimental: (§1) Assay 4: Replicon Assays Against NS5A Sequences of Other Genotypes
(§2) Potencies of test compounds against NS5A sequences of other genotypes were determined by creating intergenotypic chimeras. The entire NS5A gene from genotypes 2a, 2b, 3a, 4a, 5a, and 6a, or the nucleotide sequence encoding amino acids 11-118 of NS5A, was subcloned into a genotype 1b replicon. For genotype 2a, intergenotypic chimeras with both the JFH and the J6 strain were created. […] Since the majority of genotype 2a sequences in public databases contain the L31M sequence variant, the use of the J6 genotype 2a sequence may better reflect the antiviral potency of NS5A inhibitors.
(§3) These chimeric replicon plasmids were then linearized and in vitro transcribed to RNA. The RNA was used to transiently or stably transfect Huh-LUNET cells by electroporation, and the potencies of test compounds against the chimeras were determined as previously described.

[3] = test system: HCV genotype 2a (J6 strain) NS5A chimeric replicon; test: Replicon assay against NS5A sequence of genotype 2a (J6 strain), intergenotypic chimera; type: cell-based; settings: Hepatitis C virus, read-out: Genotype 2a (J6)
Experimental: as §1, §2, §3

COC(=O)N[C@H](C(=O)N1C[C@@H](C)C[C@H]1c1nc(-c2ccc(-c3ccc(C(=O)Nc4ccc(N5CCN(C(=O)C(C)(C)C)C[C@H]5C)nc4)c(F)c3OC(F)(F)F)cc2)c[nH]1)C1CCOCC1 [Example 21, Methyl ((S)-2-((2S,4S)-2-(4-(3′-fluoro-4′-((6-((R)-2-methyl-4-pivaloyl-piperazin-1-yl)pyridin-3-yl)carbamoyl)-2′-(trifluoromethoxy)-[1,1′-biphenyl]-4-yl)-1H-imidazol-2-yl)-4-methylpyrrolidin-1-yl)-2-oxo-1-(tetrahydro-2H-pyran-4-yl)ethyl)carbamate]
pEC50 (HCV genotype 1b replicon): > 10.00
pEC50 (HCV genotype 1a replicon): > 10.00
pEC50 [1]: 9.00 to 10.00
pEC50 [2]: 9.00 to 10.00
pEC50 [3]: 9.00 to 10.00
